Results reported in PubChem BioAssay (NCI).
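Method: 48-hour compound exposure of cells in 96-well plates, five concentrations, linear interpolation of endpoints. Abbreviation: GI50, concentration required for 50% inhibition of growth. TGI denotes the concentration required for complete inhibition of growth.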

What was measured:
Assay in all cases: NCI tumour cell line growth inhibition, 48 h
SNB-75 CNS = system: SNB-75 CNS
COLO 205 colon = system: COLO 205 colon
SF-268 CNS = system: SF-268 CNS
SNB-19 CNS = system: SNB-19 CNS
SR leukemia = system: SR leukemia
A549 NSCLC = system: A549 NSCLC
HT29 colon = system: HT29 colon
EKVX NSCLC = system: EKVX NSCLC
T-47D breast = system: T-47D breast
SF-539 CNS = system: SF-539 CNS
CAKI-1 renal = system: CAKI-1 renal
MALME-3M melanoma = system: MALME-3M melanoma
SK-MEL-5 melanoma = system: SK-MEL-5 melanoma
OVCAR-4 ovarian = system: OVCAR-4 ovarian
BT-549 breast = system: BT-549 breast
UO-31 renal = system: UO-31 renal
MDA-MB-435 = system: MDA-MB-435
CCRF-CEM leukemia = system: CCRF-CEM leukemia
NCI-H460 lung = system: NCI-H460 lung
SK-OV-3 ovarian = system: SK-OV-3 ovarian
NCI-H23 lung = system: NCI-H23 lung
LOX IMVI melanoma = system: LOX IMVI melanoma
HCC-2998 colon = system: HCC-2998 colon
M14 melanoma = system: M14 melanoma
U251 CNS = system: U251 CNS
RPMI-8226 leukemia = system: RPMI-8226 leukemia
OVCAR-8 ovarian = system: OVCAR-8 ovarian
A498 renal = system: A498 renal
MDA-MB-231 breast = system: MDA-MB-231 breast
NCI/ADR-RES ovarian = system: NCI/ADR-RES ovarian
ACHN renal = system: ACHN renal
SK-MEL-2 melanoma = system: SK-MEL-2 melanoma
MOLT-4 leukemia = system: MOLT-4 leukemia
HCT-15 colon = system: HCT-15 colon
DU-145 prostate = system: DU-145 prostate
SK-MEL-28 melanoma = system: SK-MEL-28 melanoma
TK-10 renal = system: TK-10 renal
SW-620 colon = system: SW-620 colon
RXF 393 renal = system: RXF 393 renal
MCF7 breast = system: MCF7 breast
K-562 leukemia = system: K-562 leukemia
IGROV1 ovarian = system: IGROV1 ovarian
SF-295 CNS = system: SF-295 CNS
NCI-H522 lung = system: NCI-H522 lung
KM12 colon = system: KM12 colon
OVCAR-3 ovarian = system: OVCAR-3 ovarian
PC-3 prostate = system: PC-3 prostate
HCT-116 colon = system: HCT-116 colon
786-0 renal = system: 786-0 renal
SN12C renal = system: SN12C renal
HOP-62 NSCLC = system: HOP-62 NSCLC
OVCAR-5 ovarian = system: OVCAR-5 ovarian
HS 578T breast = system: HS 578T breast
UACC-257 melanoma = system: UACC-257 melanoma
UACC-62 melanoma = system: UACC-62 melanoma
NCI-H226 lung = system: NCI-H226 lung

CCOC(=O)CC1C(CNC(=O)NC)OC(n2cnc3c(NC(=O)Nc4ccccc4)ncnc32)C1O[Si](C)(C)C(C)(C)C (configuration not stated)
GI50 (SNB-75 CNS): 4.56 µM | TGI (SNB-75 CNS): > 100 µM | GI50 (COLO 205 colon): 3.84 µM | TGI (COLO 205 colon): > 100 µM | GI50 (SF-268 CNS): 6.53 µM | TGI (SF-268 CNS): 27 µM | GI50 (SNB-19 CNS): 29 µM | TGI (SNB-19 CNS): > 100 µM | GI50 (SR leukemia): 2.23 µM | TGI (SR leukemia): 7.07 µM | GI50 (A549 NSCLC): 4.18 µM | TGI (A549 NSCLC): 19.2 µM | GI50 (HT29 colon): 4.2 µM | TGI (HT29 colon): > 100 µM | GI50 (EKVX NSCLC): 17.7 µM | TGI (EKVX NSCLC): > 100 µM | GI50 (T-47D breast): 2.55 µM | TGI (T-47D breast): > 100 µM | GI50 (SF-539 CNS): 5.19 µM | TGI (SF-539 CNS): > 100 µM | GI50 (CAKI-1 renal): 29.7 µM | TGI (CAKI-1 renal): > 100 µM | GI50 (MALME-3M melanoma): 10.3 µM | TGI (MALME-3M melanoma): > 100 µM | GI50 (SK-MEL-5 melanoma): 4.34 µM | TGI (SK-MEL-5 melanoma): > 100 µM | GI50 (OVCAR-4 ovarian): 12.3 µM | TGI (OVCAR-4 ovarian): > 100 µM | GI50 (BT-549 breast): > 100 µM | TGI (BT-549 breast): > 100 µM | GI50 (UO-31 renal): 12.1 µM | TGI (UO-31 renal): 29.5 µM | GI50 (MDA-MB-435): 6.21 µM | TGI (MDA-MB-435): > 100 µM | GI50 (CCRF-CEM leukemia): 6.69 µM | TGI (CCRF-CEM leukemia): 88.6 µM | GI50 (NCI-H460 lung): 5.53 µM | TGI (NCI-H460 lung): 25 µM | GI50 (SK-OV-3 ovarian): 21 µM | TGI (SK-OV-3 ovarian): > 100 µM | GI50 (NCI-H23 lung): 33.3 µM | TGI (NCI-H23 lung): > 100 µM | GI50 (LOX IMVI melanoma): 5.46 µM | TGI (LOX IMVI melanoma): > 100 µM | GI50 (HCC-2998 colon): > 100 µM | TGI (HCC-2998 colon): > 100 µM | GI50 (M14 melanoma): 2.51 µM | TGI (M14 melanoma): 11.6 µM | GI50 (U251 CNS): 4.69 µM | TGI (U251 CNS): 20.9 µM | GI50 (RPMI-8226 leukemia): 1.09 µM | TGI (RPMI-8226 leukemia): 4.57 µM | GI50 (OVCAR-8 ovarian): 4.92 µM | TGI (OVCAR-8 ovarian): 77.2 µM | GI50 (A498 renal): 3.35 µM | TGI (A498 renal): 17.1 µM | GI50 (MDA-MB-231 breast): 3.96 µM | TGI (MDA-MB-231 breast): 41.3 µM | GI50 (NCI/ADR-RES ovarian): > 100 µM | TGI (NCI/ADR-RES ovarian): > 100 µM | GI50 (ACHN renal): 8.55 µM | TGI (ACHN renal): > 100 µM | GI50 (SK-MEL-2 melanoma): 5.42 µM | TGI (SK-MEL-2 melanoma): 33.1 µM | GI50 (MOLT-4 leukemia): 2.39 µM | TGI (MOLT-4 leukemia): 23.3 µM | GI50 (HCT-15 colon): 8.5 µM | TGI (HCT-15 colon): > 100 µM | GI50 (DU-145 prostate): 4.97 µM | TGI (DU-145 prostate): 19.4 µM | GI50 (SK-MEL-28 melanoma): 6.85 µM | TGI (SK-MEL-28 melanoma): 20.2 µM | GI50 (TK-10 renal): 12.4 µM | TGI (TK-10 renal): 40.5 µM | GI50 (SW-620 colon): 4.8 µM | TGI (SW-620 colon): 28.4 µM | GI50 (RXF 393 renal): 2.01 µM | TGI (RXF 393 renal): 4.63 µM | GI50 (MCF7 breast): 3.42 µM | TGI (MCF7 breast): 45.1 µM | GI50 (K-562 leukemia): 3.59 µM | TGI (K-562 leukemia): 32.9 µM | GI50 (IGROV1 ovarian): 3.85 µM | TGI (IGROV1 ovarian): 18 µM | GI50 (SF-295 CNS): 5.73 µM | TGI (SF-295 CNS): > 100 µM | GI50 (NCI-H522 lung): 4.36 µM | TGI (NCI-H522 lung): 85.7 µM | GI50 (KM12 colon): 3.95 µM | TGI (KM12 colon): 20.9 µM | GI50 (OVCAR-3 ovarian): 4.59 µM | TGI (OVCAR-3 ovarian): 17.2 µM | GI50 (PC-3 prostate): 2.25 µM | TGI (PC-3 prostate): 4.85 µM | GI50 (HCT-116 colon): 3.2 µM | TGI (HCT-116 colon): 16.1 µM | GI50 (786-0 renal): 2 µM | TGI (786-0 renal): 5.21 µM | GI50 (SN12C renal): 9.1 µM | TGI (SN12C renal): > 100 µM | GI50 (HOP-62 NSCLC): 8.96 µM | TGI (HOP-62 NSCLC): 26.4 µM | GI50 (OVCAR-5 ovarian): 31.1 µM | TGI (OVCAR-5 ovarian): > 100 µM | GI50 (HS 578T breast): 3.6 µM | TGI (HS 578T breast): 53.6 µM | GI50 (UACC-257 melanoma): 5.68 µM | TGI (UACC-257 melanoma): > 100 µM | GI50 (UACC-62 melanoma): > 100 µM | TGI (UACC-62 melanoma): > 100 µM | GI50 (NCI-H226 lung): > 100 µM | TGI (NCI-H226 lung): > 100 µM
